Tests used:
[1] = system: Phosphatidylserine (C2) Binding Site; assay: 3H-DCPLA-ME binding to rat brain slices with C1 and C2 competitors (film-autoradiography); details: rat brain slices
Description: To determine the binding site of DCPLA-ME, ^3H-DCPLA-ME was incubated with rat brain slices in the absence and presence of known C1 and C2 competitors. More specifically, rat brain sections were fixed with formaldehyde, sliced, and incubated with (1)^3H-DCPLA-ME alone; (2)^3H-DCPLA-ME with DCPLA; (3)^3H-DCPLA-ME with Phorbol ester; or (4)^3H-DCPLA-ME and Bryostatin 1. After incubation, the slices were washed with a buffer made of 130 mM NaCl, 5 mM MgCl, 5 mM KCl, 1 mM EGTA, and 0.1% bovine serum albumin in 10 mM HEPES-NaOH, pH 7.4, dried, and analyzed with film-autoradiography.

[2] = system: rat primary hippocampal neurons; assay: Neurotoxic effect of Aβ1-42 oligomers, MTT viability assay; assay type: cell-based; details: 20 hr
Description: Amylospheroids (ASPDs) and Aβ monomers were prepared following Hoshi, M., et al. (2003) Proc Natl Acad Sci USA 100, 6370-6375, and Noguchi, A., et al. (2009) J Biol Chem 284, 32895-32905. Briefly, Aβ1-42 was dissolved in 1,1,1,3,3,3-hexafluoro-2-propanol and incubated overnight at 4° C. and then 3 hr at 37° C. The dissolved Aβ1-42 was then lyophilized in 1.5 ml polypropylene centrifuge tubes at 40 nmol/tube concentration. For preparing the ASPDs, the lyophilized Aβ was dissolved in phosphate buffered saline (PBS) without Ca^2+ or Mg^2+ at less than 50 μM concentration and rotated for 14 hr at 4° C. After incubation, the Aβ solution was purified using a 100 kDa molecular mass cutoff filter (Amicon Ultra, Millipore) and the high-molecular weight fraction was saved to obtain the most toxic ASPDs. Aβ derived diffusible ligands (ADDLs) were produced as previously described. See Lambert, M. P et al., Proc. Natl. Acad. Sci. USA, 1998, 95: 6448-6453. Briefly, Aβ1-42 was solubilized at 5 mM in dimethyl sulfoxide, diluted to 100 μM in F12k medium and was incubated at 4° C. for 24 hr. The solution was centrifuged at 14000×g for 10 min at 4° C. and the supernatant was used as the ADDLs.
Viability of cells was measured by MTT assay. MTT (i.e., 3-(4,5-dimethylthiazol-2-yl)-2,5-diphenyltetrazolium bromide) is a tetrazolium salt that is cleaved to formazan by the succinate dehydrogenase, which is only active in viable cells. After solubilization of the formazan, the amount of dye can be quantified with a microplate reader at 570 nm along with a reference of 630 nm. For the MTT assay, 5×10^4 primary rat hippocampal neurons from 18-day-old embryonic Sprague-Dawley rat brains or SH-SY5Y cells were plated on each well of 24-well plates coated with poly-D-lysine. After treatment, the cells were washed with 1× PBS and were incubated with 200 μl of 1 mg/ml MTT solution (Sigma, USA) at 37° C. for 2 hr. Then the MTT-solution was removed and the cells were lysed with 200 μl isopropanol containing 0.04 M HCl and […] for 10 min. Finally, the reading was taken at 570 nm and 630 nm. All the samples were done in triplicate and the data were represented as the percentage of control.
To assess the neurotoxic effect of different sized oligomers, rat primary hippocampal neurons were treated with variable concentrations of these Aβ1-42 species for 20 hr. Viability of the treated cells was compared to untreated cells using the MTT assay described above.

[3] = molecular target: T1, PKC-ε (Homo sapiens, UniProt Q02156); assay: PKC activation assay with purified PKC-ε isozyme (32P-phosphoprotein formation); assay type: biochemical; details: for Emax: % of control of PKCε at maximum; for EC50: lowest concentration that activates by 50% of maximum activation; for Specificity ε/α: Activation of PKC-ε ÷ activation or inhibition of PKCα at 3xEC50
T1 sequence (Q02156 1-737): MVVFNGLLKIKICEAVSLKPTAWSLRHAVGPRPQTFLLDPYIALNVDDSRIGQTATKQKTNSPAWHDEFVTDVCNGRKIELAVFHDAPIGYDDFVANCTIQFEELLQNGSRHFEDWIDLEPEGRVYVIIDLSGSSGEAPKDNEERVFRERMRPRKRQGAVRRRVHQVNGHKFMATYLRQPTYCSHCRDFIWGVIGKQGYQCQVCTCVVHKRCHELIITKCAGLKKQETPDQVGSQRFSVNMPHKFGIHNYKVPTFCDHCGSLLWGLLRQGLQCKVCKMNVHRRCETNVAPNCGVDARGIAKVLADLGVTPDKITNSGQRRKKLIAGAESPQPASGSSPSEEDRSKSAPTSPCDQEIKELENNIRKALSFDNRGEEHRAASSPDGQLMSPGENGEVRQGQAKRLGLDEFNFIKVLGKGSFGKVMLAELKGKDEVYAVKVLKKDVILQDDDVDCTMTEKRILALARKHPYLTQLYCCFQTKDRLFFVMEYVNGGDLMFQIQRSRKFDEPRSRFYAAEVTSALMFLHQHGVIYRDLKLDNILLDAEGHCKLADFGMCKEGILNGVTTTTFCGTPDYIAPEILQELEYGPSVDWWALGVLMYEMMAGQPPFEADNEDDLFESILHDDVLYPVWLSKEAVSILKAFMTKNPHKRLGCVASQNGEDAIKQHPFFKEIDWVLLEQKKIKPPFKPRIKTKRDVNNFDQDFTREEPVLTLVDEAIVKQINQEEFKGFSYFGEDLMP
Description: For measurement of PKC activation by DCPLA-ME, activation of recombinant PKC-α, PKC-ε, and PKC-δ was evaluated. DCPLA-ME induced activation was measured in the absence of diacylglycerol (DAG) and phosphatidylserine (PS) as described earlier. See Nelson, T. J. et al., J. Biol. Chem., 2009, 284: 34514-34521, and Kanno, T. et al., J. Cell Physiol., 2009, 221: 183-188. Individual enzymes were incubated for 15 min at 37° C. in the presence of 10 μM histones, 4.89 mM CaCl2, 10 mM MgCl2, 20 mM HEPES (pH 7.4), 0.8 mM EDTA, 4 mM EGTA, 4% glycerol, 8 μg/ml aprotinin, 8 μg/ml leupeptin, 2 mM benzamidine, and 0.5 μCi of [γ-^32P]ATP. Purified PKC-α, PKC-ε and PKC-δ were preincubated with DCPLA-ME for 5 min at room temperature. [^32P]-Phosphoprotein formation was measured by adsorption onto phosphocellulose.
To measure PKC, 10 μl of cell homogenate or purified PKC isozyme was incubated for 15 min at 37° C. in the presence of 10 μM histones, 4.89 mM CaCl2, 1.2 μg/μl phosphatidyl-L-serine, 0.18 μg/μl 1,2-dioctanoyl-sn-glycerol, 10 mM MgCl2, 20 mM HEPES (pH 7.4), 0.8 mM EDTA, 4 mM EGTA, 4% glycerol, 8 μg/ml aprotinin, 8 μg/ml leupeptin, and 2 mM benzamidine. [γ32P]ATP (0.5 μCi) was added and 32P-phosphoprotein formation was measured by adsorption onto phosphocellulose as described previously. See Nelson et al., J. Neurochemistry, 1995, 65: 2350-2357.
PKC activity of each compound was measured in the absence of diacylglycerol and phosphatidyl-L-serine and PKC-δ and PKC-ε were measured in the absence of added EGTA and CaCl2, as described by Kanno et al., J. Lipid Res., 2006, 47: 1146-1156. Low concentrations of Ca^2+ are needed because high Ca^2+ interacts with the PKC phosphatidylserine binding site and prevents activation. […] To determine their PKC isozyme specificity, the compounds were pre-incubated with purified isoforms of PKC for five minutes and the PKC activity was measured radiometrically.
The activation and PKC isozyme specificity of DCPLA-ethyl ester was measured following the procedures in Example 1(B) and (C), except that 9 ng of the purified isozyme was used and it was pre-incubated for 5 minutes at room temperature (FIG. 3). PKC-ε activation by DCPLA-tert-butyl ester and DCPLA-retinyl ester was measured in the same manner as DCPLA-ethyl ester (FIG. 3).
The EC50 values, PKC specificity, and activation for a select number of DCPLA esters was determined (see Table 1). EC50 values were determined by measuring the lowest concentration that activates by 50% of maximum activation. […] The specificity and activation of PKC by the various esters of DCPLA were determined from the measurements of activation of PKC isozymes.

Compound	Emax [3] [%]	EC50 [3] [nM]	Specificity ε/α [3]	further results
CCCC(=O)O[C@@H]1[C@@H](C)[C@@]2(O)[C@@H](C=C(CO)C[C@]3(O)C(=O)C(C)=C[C@@H]23)[C@@H]2C(C)(C)[C@]12OC(=O)CCC [Phorbol ester (PdBu)]	–	–	–	3H-DCPLA-ME binding, 30 nM competitor [1]: 100%; 3H-DCPLA-ME binding, 1 μM competitor [1]: 81%
oAβ < 100 kDa: filtrate from the 100 kDa filtration of ASPD preparation, 12 monomers on average	–	–	–	Viability of primary neuron ([2]; 50 nM): 76.41 ± 5.54 % of control; Viability of primary neuron ([2]; 50 nM, listed as OAβ<100 kDa filtrate): significantly cytotoxic; Viability of primary neuron ([2]; 500 nM): 62.94 ± 9.53 % of control; Viability of primary neuron ([2]; 1000 nM (1 μM)): 53.52 ± 2.43 % of control
CCCCCC1CC1CC1CC1CCCCCCCC(=O)OC(C)(C)C (stereo not shown) [DCPLA-t-butyl ester, DCPLA-tert-butyl ester]	130	1	–	form of activity vs. concentration response [3]: bimodal activation
CCCCCC1CC1CC1CC1CCCCCCCC(=O)OCC (stereo not shown) [DCPLA-ethyl ester]	126	3	4.2	–
CCCCCC1CC1CC1CC1CCCCCCCC(=O)OC/C=C(C)/C=C/C=C(C)/C=C/C1=C(C)CCCC1(C)C (stereo not shown) [DCPLA-retinyl ester]	129	10	–	–
CCCCCC1CC1CC1CC1CCCCCCCC(=O)O (stereo not shown) [DCPLA, 8-[2-(2-pentylcyclopropylmethyl)-cyclopropyl]-octanoic acid]	300	1000	7.4	3H-DCPLA-ME binding, 30 nM competitor [1]: 86%; 3H-DCPLA-ME binding, 1 μM competitor [1]: 35%
CCCCCCCCC1CC1CCCCCCCCOC(=O)CCCCCCCC1CC1CC1CC1CCCCC (stereo not shown) [DCPLA-cyclopropanated oleyl ester]	140	3	8.1	concentration of maximal activation ([3]; FIG. 2, FIG. 4): 10 nM; PKC isozyme specificity ([3]; PKC-ε vs PKC-α and PKC-δ): relatively specific for PKC-ε; PKC-ε activation at its peak ([3]; maximum, FIG. 1, 2, 4): 140 % of control
